Test results from US20220009931A1, “NOVEL UREA 6,7-DIHYDRO-4H-PYRAZOLO[1,5-A]PYRAZINES ACTIVE AGAINST THE HEPATITIS B VIRUS (HBV)” (AICURIS GMBH & CO. KG, priority 2018, published 2022).

System: HBV
Conditions: Hepatitis B virus, HePAD38, 144 h, read-out: Cell Activity

O=C(Nc1ccc(F)c(Cl)c1)N1CCn2nc(N[C@H]3C[C@H](O)C3)cc2C1 [Example 36, N-(3-chloro-4-fluorophenyl)-2-{[(1r,3r)-3-hydroxycyclobutyl]amino}-4H,5H,6H,7H-pyrazolo[1,5-a]pyrazine-5-carboxamide]
EC50: 1 to 10 µM
